Consider 2 compounds from US20060189678A1, “4,5-dihydronaphtho[1,2-b]thiophene derivative” (priority 2003, published 2006).

The test system of test [1] is Male KKAy mice (model for type 2 diabetes). Briefly: Triglyceride content in the liver of KKAy mice (Triglyceride E Test Wako). It counts as in vivo. The conditions noted are these: n=6, subcutaneous 3 mg/5 mL/kg twice a day for 2 weeks, control group 61.7, healthy group 12.5, * P<0.05, ** P<0.01. How it is done:
(§1) Male KKAy mice (11 to 12 weeks old) (each n=6) were used as a model for type 2 diabetes. 11% sulfobutyl ether-β-cyclodextrin was added to the compounds of Examples 1 and 59, and these products were administered subcutaneously in a dose of 3 mg/5 mL/kg, twice a day, continuously for 2 weeks. A group that was given just the vehicle was used as a control group, and male C57BL/6J mice (11 to 12 weeks old) (n=6) that had similarly been given the vehicle were used for a healthy group. The livers were collected, and a Triglyceride E Test Wako (Wako Pure Chemicals) was used to quantify the triglyceride content in the liver. […] Blood was also sampled from the orbital venous plexus, and the glucose level in the separated serum was quantified by enzyme method using a L-type Wako GLU2 (Wako Pure Chemicals).

The test system is the same in test [2]. The test is described as follows: Serum glucose level in KKAy mice (enzyme method, L-type Wako GLU2). In kind it is in vivo. The conditions noted are these: n=6, subcutaneous 3 mg/5 mL/kg twice a day for 2 weeks, serum from orbital venous plexus blood, control group 532, healthy group 211, ** P<0.01. How it is done: as §1

Regarding `CC(=O)c1cc2c(s1)-c1cc(C)cc(C)c1CC2` [Example 1, 2-acetyl-4,5-dihydro-6,8-dimethylnaphtho[1,2-b]thiophene], the “Triglyceride content in liver” value in test [1] was 47.5* mg/g liver. The compound further displayed a Blood glucose level in test [2] of 491 mg/dL.
In the same order, the values of `Cc1cc(C)c2c(c1)-c1sc(CCO)cc1CC2` [Example 59, 2-(2-hydroxyethyl)-4,5-dihydro-6,8-dimethylnaphtho[1,2-b]thiophene] are 34.8** mg/g liver and 269** mg/dL.
